Laboratory results published in patent US11345712B2, “Protein-targeting compounds and pharmaceutical compositions thereof, and their therapeutic applications” (BioTheryX, Inc., priority 2019, dated 2022).

Each molecule was assayed on MOLM-13 cells (assay: MOLM-13 cell viability assay (CellTiter-Glo)). Settings: 3 days, concentration of 1 μM.
Format: cell-based
Protocol: MOLM-13 cells were cultured in RPMI 1640 media supplemented with 10% fetal bovine serum, streptomycin, and penicillin. The cells were plated in white walled 96-well plates at 2,500 cells/well. The cells were incubated in DMSO (control) or an indicated compound for 3 days at 37° C. and 5% CO2. Following the incubation period, 100 μL of CELLTITER-GLO® (CTG) reagent was added to each well. Following a 10 minutes incubation with shaking, luminescence was measured using an ENVISION® Multimode plate reader.
In the case of `CC(C)(C)c1ccc(C(=O)C(=O)NCc2cc3c(s2)C(=O)N(C2CCC(=O)NC2=O)C3)cc1` (centres unmarked) [Compound I-35, 2-(4-(tert-butyl)phenyl)-N-((5-(2,6-dioxopiperidin-3-yl)-6-oxo-5,6-dihydro-4H-thieno[2,3-c]pyrrol-2-yl)methyl)-2-oxoacetamide], the “Antiproliferative Activity (inhibition, MOLM-13 cell viability)” value is reported as “D (a value less than 25% inhibition)”. `CC(C)(C)c1ccc(C(=O)C(=O)NCc2scc3c2CN(C2CCC(=O)NC2=O)C3=O)cc1` (centres unmarked) [Compound I-40, 2-(4-(tert-butyl)phenyl)-N-((5-(2,6-dioxopiperidin-3-yl)-4-oxo-5,6-dihydro-4H-thieno[3,4-c]pyrrol-1-yl)methyl)-2-oxoacetamide] was tested, and the “Antiproliferative Activity (inhibition, MOLM-13 cell viability)” value was “D (a value less than 25% inhibition)”. In the case of `CC(C)(C)c1ccc(C(=O)C(=O)NCc2cc3c(s2)C(=O)N(C2CCC(=O)NC2=O)C3)cc1` (centres unmarked) [Compound I-45, 2-(4-(tert-butyl)phenyl)-N-((5-(2,6-dioxopiperidin-3-yl)-6-oxo-5,6-dihydro-4H-thieno[2,3-c]pyrrol-2-yl)methyl)-2-oxoacetamide], the “Antiproliferative Activity (inhibition, MOLM-13 cell viability)” value is reported as “B (a value less than 80% but no less than 50%)”.

Same assay, conditions: Homo sapiens, MOLM-13, 72 h, 3 days, concentration of 1 μM, read-out: Antiproliferative Activity (inhibition, MOLM-13 cell viability)
Molecule `CC(c1ccc(C(=O)C(=O)NCc2scc3c2CN(C2CCC(=O)NC2=O)C3=O)cc1)C(F)(F)F` (centres unmarked) [Compound I-36, N-((5-(2,6-dioxopiperidin-3-yl)-4-oxo-5,6-dihydro-4H-thieno[3,4-c]pyrrol-1-yl)methyl)-2-oxo-2-(4-(1,1,1-trifluoropropan-2-yl)phenyl)acetamide] has a cytotoxicity at 1 µM of 25 to 50%. Molecule `CC(C)c1ccc(C(=O)C(=O)NCc2ccc3c(c2)CN(C2CCC(=O)NC2=O)C3=O)s1` (centres unmarked) [Compound I-37, N-((2-(2,6-dioxopiperidin-3-yl)-1-oxoisoindolin-5-yl)methyl)-2-(5-isopropylthiophen-2-yl)-2-oxoacetamide] has a cytotoxicity at 1 µM of over 80%. Work on `CC(C)(C)c1ccc(C(=O)C(=O)NCc2cccc3c2C(=O)N(C2CCC(=O)NC2=O)C3)cc1` (centres unmarked) [Compound I-38, 2-(4-(tert-butyl)phenyl)-N-((2-(2,6-dioxopiperidin-3-yl)-3-oxoisoindolin-4-yl)methyl)-2-oxoacetamide] yielded a cytotoxicity at 1 µM of under 25%. For `CC(C)(C)c1ccc(C(=O)C(=O)NCc2csc3c2CN(C2CCC(=O)NC2=O)C3=O)cc1` (centres unmarked) [Compound I-39, 2-(4-(tert-butyl)phenyl)-N-((5-(2,6-dioxopiperidin-3-yl)-6-oxo-5,6-dihydro-4H-thieno[2,3-c]pyrrol-3-yl)methyl)-2-oxoacetamide], the cytotoxicity at 1 µM was over 80%. Work on `CC(C)(C)c1ccc(C(=O)C(=O)NCCc2scc3c2CN(C2CCC(=O)NC2=O)C3=O)cc1` (centres unmarked) [Compound I-41, 2-(4-(tert-butyl)phenyl)-N-(2-(5-(2,6-dioxopiperidin-3-yl)-4-oxo-5,6-dihydro-4H-thieno[3,4-c]pyrrol-1-yl)ethyl)-2-oxoacetamide] yielded a cytotoxicity at 1 µM of over 80%. With `CC1(c2ccc(C(=O)C(=O)NCc3scc4c3CN(C3CCC(=O)NC3=O)C4=O)cc2)CC1` (centres unmarked) [Compound I-42, N-((5-(2,6-dioxopiperidin-3-yl)-4-oxo-5,6-dihydro-4H-thieno[3,4-c]pyrrol-1-yl)methyl)-2-(4-(1-methylcyclopropyl)phenyl)-2-oxoacetamide] the cytotoxicity at 1 µM was 50 to 80%. `CC(C)(CO)c1ccc(C(=O)C(=O)NCc2scc3c2CN(C2CCC(=O)NC2=O)C3=O)cc1` (centres unmarked) [Compound I-43, N-((5-(2,6-dioxopiperidin-3-yl)-4-oxo-5,6-dihydro-4H-thieno[3,4-c]pyrrol-1-yl)methyl)-2-(4-(1-hydroxy-2-methylpropan-2-yl)phenyl)-2-oxoacetamide] showed a cytotoxicity at 1 µM of under 25%. `Cc1ccc(C(=O)C(=O)NCc2scc3c2CN(C2CCC(=O)NC2=O)C3=O)cc1N(C)C` (centres unmarked) [Compound I-44, 2-(3-(dimethylamino)-4-methylphenyl)-N-((5-(2,6-dioxopiperidin-3-yl)-4-oxo-5,6-dihydro-4H-thieno[3,4-c]pyrrol-1-yl)methyl)-2-oxoacetamide] showed a cytotoxicity at 1 µM of over 80%. `CC(C)(C)c1cccc(C(=O)C(=O)NCc2cccc3c2CN(C2CCC(=O)NC2=O)C3=O)c1` (centres unmarked) [Compound I-46, 2-(3-(tert-butyl)phenyl)-N-((2-(2,6-dioxopiperidin-3-yl)-1-oxoisoindolin-4-yl)methyl)-2-oxoacetamide] was tested, and the cytotoxicity at 1 µM was 25 to 50%. In the case of `CN(Cc1cccc2c1CN(C1CCC(=O)NC1=O)C2=O)C(=O)C(=O)c1ccc(C(C)(C)C)cc1` (centres unmarked) [Compound I-47, 2-(4-(tert-butyl)phenyl)-N-((2-(2,6-dioxopiperidin-3-yl)-1-oxoisoindolin-4-yl)methyl)-N-methyl-2-oxoacetamide], the cytotoxicity at 1 µM is reported as under 25%. `CC(C)(C)c1ccc(C(=O)C(=O)NCc2cccc3c2C(=O)N(C2CCC(=O)NC2=O)C3=O)cc1` (centres unmarked) [Compound I-48, 2-(4-(tert-butyl)phenyl)-N-((2-(2,6-dioxopiperidin-3-yl)-1,3-dioxoisoindolin-4-yl)methyl)-2-oxoacetamide] showed a cytotoxicity at 1 µM of under 25%. Molecule `CC(C)[C@@H](N)C(=O)OCN1C(=O)CCC(N2Cc3c(CNC(=O)C(=O)c4ccc(C(C)(C)C)cc4)cccc3C2=O)C1=O` (stereo partly drawn) [Compound I-49, (2R)-(3-(4-((2-(4-(tert-butyl)phenyl)-2-oxoacetamido)methyl)-1-oxoisoindolin-2-yl)-2,6-dioxopiperidin-1-yl)methyl 2-amino-3-methylbutanoate] has a cytotoxicity at 1 µM of 50 to 80%. With `CC(C)(C)c1ccc(C(=O)C(=O)NCc2c(F)ccc3c2CN(C2CCC(=O)NC2=O)C3=O)cc1` (centres unmarked) [Compound I-50, 2-(4-(tert-butyl)phenyl)-N-((2-(2,6-dioxopiperidin-3-yl)-5-fluoro-1-oxoisoindolin-4-yl)methyl)-2-oxoacetamide] the cytotoxicity at 1 µM was under 25%. For `CC(C)(C)c1ccc(C(=O)C(=O)NCc2c(F)c(F)cc3c2CN(C2CCC(=O)NC2=O)C3=O)cc1` (centres unmarked) [Compound I-51, 2-(4-(tert-butyl)phenyl)-N-((2-(2,6-dioxopiperidin-3-yl)-5,6-difluoro-1-oxoisoindolin-4-yl)methyl)-2-oxoacetamide], the cytotoxicity at 1 µM was under 25%. Molecule `O=C1CCC(N2Cc3cc(CCNC(=O)C(=O)c4ccc(C5(C(F)(F)F)CC5)cc4)ccc3C2=O)C(=O)N1` (centres unmarked) [Compound I-52, N-(2-(2-(2,6-Dioxopiperidin-3-yl)-1-oxoisoindolin-5-yl)ethyl)-2-oxo-2-(4-(1-(trifluoromethyl)cyclopropyl)phenyl)acetamide] has a cytotoxicity at 1 µM of 25 to 50%. `Cc1ccc(C(=O)C(=O)NCc2ccc3c(c2)CN(C2CCC(=O)NC2=O)C3=O)cc1Cl` (centres unmarked) [Compound I-53, 2-(3-chloro-4-methylphenyl)-N-((2-(2,6-dioxopiperidin-3-yl)-1-oxoisoindolin-5-yl)methyl)-2-oxoacetamide] showed a cytotoxicity at 1 µM of over 80%. `Cc1cc(C(=O)C(=O)NCc2cccc3c2CN(C2CCC(=O)NC2=O)C3=O)ccc1C(C)(C)C` (centres unmarked) [Compound I-54, 2-(3-methyl-4-(tert-butyl)phenyl)-N-((2-(2,6-dioxopiperidin-3-yl)-1-oxoisoindolin-4-yl)methyl)-2-oxoacetamide] showed a cytotoxicity at 1 µM of over 80%. With `Cc1cc(C(=O)C(=O)NCc2ccc3c(c2)CN(C2CCC(=O)NC2=O)C3=O)ccc1C(C)(C)C` (centres unmarked) [Compound I-55, 2-(3-methyl-4-(tert-butyl)phenyl)-N-((2-(2,6-dioxopiperidin-3-yl)-1-oxoisoindolin-5-yl)methyl)-2-oxoacetamide] the cytotoxicity at 1 µM was over 80%. Molecule `CC(C)(C)c1ccc(C(=O)C(=O)Nc2cccc3c2CN(C2CCC(=O)NC2=O)C3=O)cc1` (centres unmarked) [Compound I-56, 2-(4-(tert-butyl)phenyl)-N-(2-(2,6-dioxopiperidin-3-yl)-1-oxoisoindolin-4-yl)-2-oxoacetamide] has a cytotoxicity at 1 µM of under 25%. Molecule `O=C1CCC(N2Cc3c(NC(=O)C(=O)c4ccc(C5(C(F)(F)F)CC5)cc4)cccc3C2=O)C(=O)N1` (centres unmarked) [Compound I-57, N-(2-(2,6-dioxopiperidin-3-yl)-1-oxoisoindolin-4-yl)-2-oxo-2-(4-(1-(trifluoromethyl)cyclopropyl)phenyl)acetamide] has a cytotoxicity at 1 µM of under 25%. With `O=C1CCC(N2C(=O)c3cccc(CNC(=O)C(=O)c4ccc(C5(C(F)(F)F)CC5)cc4)c3C2=O)C(=O)N1` (centres unmarked) [Compound I-58, N-((2-(2,6-dioxopiperidin-3-yl)-1,3-dioxoisoindolin-4-yl)methyl)-2-oxo-2-(4-(1-(trifluoromethyl)cyclopropyl)phenyl)acetamide] the cytotoxicity at 1 µM was 50 to 80%. Work on `CC(C)c1ccc(C(=O)C(=O)NCc2cccc3c2CN(C2CCC(=O)NC2=O)C3=O)s1` (centres unmarked) [Compound I-59, N-((2-(2,6-dioxopiperidin-3-yl)-1-oxoisoindolin-4-yl)methyl)-2-(5-isopropylthiophen-2-yl)-2-oxoacetamide] yielded a cytotoxicity at 1 µM of 25 to 50%. `Cc1c(CNC(=O)C(=O)c2ccc(C3(C(F)(F)F)CC3)cc2)ccc2c1CN(C1CCC(=O)NC1=O)C2=O` (centres unmarked) [Compound I-60, N-((2-(2,6-dioxopiperidin-3-yl)-4-methyl-1-oxoisoindolin-5-yl)methyl)-2-oxo-2-(4-(1-(trifluoromethyl)cyclopropyl)phenyl)acetamide] gave a cytotoxicity at 1 µM of 50 to 80%. In the case of `CC(C)(C)C1CCN(C(=O)C(=O)NCc2cccc3c2CN(C2CCC(=O)NC2=O)C3=O)CC1` (centres unmarked) [Compound I-61, 2-(4-(tert-butyl)piperidin-1-yl)-N-((2-(2,6-dioxopiperidin-3-yl)-1-oxoisoindolin-4-yl)methyl)-2-oxoacetamide], the cytotoxicity at 1 µM is reported as under 25%. `CC(C)(C)C1CCN(C(=O)C(=O)NCc2ccc3c(c2)CN(C2CCC(=O)NC2=O)C3=O)CC1` (centres unmarked) [Compound I-62, 2-(4-(tert-butyl)piperidin-1-yl)-N-((2-(2,6-dioxopiperidin-3-yl)-1-oxoisoindolin-5-yl)methyl)-2-oxoacetamide] showed a cytotoxicity at 1 µM of over 80%. With `CC(C)[C@@H](N)C(=O)OCN1C(=O)CCC(N2Cc3c(CNC(=O)C(=O)c4ccc(C5(C(F)(F)F)CC5)cc4)cccc3C2=O)C1=O` (stereo partly drawn) [Compound I-64, (2,6-dioxo-3-(1-oxo-4-((2-oxo-2-(4-(1-(trifluoromethyl)cyclopropyl)-phenyl)acetamido)methyl)isoindolin-2-yl)piperidin-1-yl)methyl D-valinate] the cytotoxicity at 1 µM was over 80%.
